Laboratory results taken from paper PMC7655512 (Cell stem cell, 2020).

Tests used:
[1] = tested on: genetic and pharmacological LQT3 hiPSC-CM models; experiment: Optical voltage assay across genetic and pharmacological LQT3 hiPSC-CM models; assay type: cell-based, human; settings: for general APD effect at low or high doses: summary over all models, result in words
[2] = tested on: LQT3 SCN5A N406K hiPSC-CMs; experiment: Optical voltage assay, second genetic LQT3 model; assay type: cell-based, human; settings: result in words
[3] = tested on: HD.113 hiPSC-CMs treated with ATX-II; experiment: High dose ATX-II induced arrhythmia in healthy donor hiPSC-CMs; assay type: cell-based, human; settings: ATX-II 1 μM; result in words
SCN5A L409P/R588 mutant = SCN5A L409P/R588 mutant (Homo sapiens, UniProt Q14524, H558R/L409P); experiment: Automated planar patch clamp of LQT3 mutant channel in HEK293T cells; assay type: cell-based; settings: for preference of block between INaP and INaL: result in words
HD.CDI hiPSC-CMs = experiment: High throughput optical action potential recording, healthy donor hiPSC-CMs; settings: result in words

Sequence of SCN5A L409P/R588 mutant (Q14524 whole entry L409P/H558R): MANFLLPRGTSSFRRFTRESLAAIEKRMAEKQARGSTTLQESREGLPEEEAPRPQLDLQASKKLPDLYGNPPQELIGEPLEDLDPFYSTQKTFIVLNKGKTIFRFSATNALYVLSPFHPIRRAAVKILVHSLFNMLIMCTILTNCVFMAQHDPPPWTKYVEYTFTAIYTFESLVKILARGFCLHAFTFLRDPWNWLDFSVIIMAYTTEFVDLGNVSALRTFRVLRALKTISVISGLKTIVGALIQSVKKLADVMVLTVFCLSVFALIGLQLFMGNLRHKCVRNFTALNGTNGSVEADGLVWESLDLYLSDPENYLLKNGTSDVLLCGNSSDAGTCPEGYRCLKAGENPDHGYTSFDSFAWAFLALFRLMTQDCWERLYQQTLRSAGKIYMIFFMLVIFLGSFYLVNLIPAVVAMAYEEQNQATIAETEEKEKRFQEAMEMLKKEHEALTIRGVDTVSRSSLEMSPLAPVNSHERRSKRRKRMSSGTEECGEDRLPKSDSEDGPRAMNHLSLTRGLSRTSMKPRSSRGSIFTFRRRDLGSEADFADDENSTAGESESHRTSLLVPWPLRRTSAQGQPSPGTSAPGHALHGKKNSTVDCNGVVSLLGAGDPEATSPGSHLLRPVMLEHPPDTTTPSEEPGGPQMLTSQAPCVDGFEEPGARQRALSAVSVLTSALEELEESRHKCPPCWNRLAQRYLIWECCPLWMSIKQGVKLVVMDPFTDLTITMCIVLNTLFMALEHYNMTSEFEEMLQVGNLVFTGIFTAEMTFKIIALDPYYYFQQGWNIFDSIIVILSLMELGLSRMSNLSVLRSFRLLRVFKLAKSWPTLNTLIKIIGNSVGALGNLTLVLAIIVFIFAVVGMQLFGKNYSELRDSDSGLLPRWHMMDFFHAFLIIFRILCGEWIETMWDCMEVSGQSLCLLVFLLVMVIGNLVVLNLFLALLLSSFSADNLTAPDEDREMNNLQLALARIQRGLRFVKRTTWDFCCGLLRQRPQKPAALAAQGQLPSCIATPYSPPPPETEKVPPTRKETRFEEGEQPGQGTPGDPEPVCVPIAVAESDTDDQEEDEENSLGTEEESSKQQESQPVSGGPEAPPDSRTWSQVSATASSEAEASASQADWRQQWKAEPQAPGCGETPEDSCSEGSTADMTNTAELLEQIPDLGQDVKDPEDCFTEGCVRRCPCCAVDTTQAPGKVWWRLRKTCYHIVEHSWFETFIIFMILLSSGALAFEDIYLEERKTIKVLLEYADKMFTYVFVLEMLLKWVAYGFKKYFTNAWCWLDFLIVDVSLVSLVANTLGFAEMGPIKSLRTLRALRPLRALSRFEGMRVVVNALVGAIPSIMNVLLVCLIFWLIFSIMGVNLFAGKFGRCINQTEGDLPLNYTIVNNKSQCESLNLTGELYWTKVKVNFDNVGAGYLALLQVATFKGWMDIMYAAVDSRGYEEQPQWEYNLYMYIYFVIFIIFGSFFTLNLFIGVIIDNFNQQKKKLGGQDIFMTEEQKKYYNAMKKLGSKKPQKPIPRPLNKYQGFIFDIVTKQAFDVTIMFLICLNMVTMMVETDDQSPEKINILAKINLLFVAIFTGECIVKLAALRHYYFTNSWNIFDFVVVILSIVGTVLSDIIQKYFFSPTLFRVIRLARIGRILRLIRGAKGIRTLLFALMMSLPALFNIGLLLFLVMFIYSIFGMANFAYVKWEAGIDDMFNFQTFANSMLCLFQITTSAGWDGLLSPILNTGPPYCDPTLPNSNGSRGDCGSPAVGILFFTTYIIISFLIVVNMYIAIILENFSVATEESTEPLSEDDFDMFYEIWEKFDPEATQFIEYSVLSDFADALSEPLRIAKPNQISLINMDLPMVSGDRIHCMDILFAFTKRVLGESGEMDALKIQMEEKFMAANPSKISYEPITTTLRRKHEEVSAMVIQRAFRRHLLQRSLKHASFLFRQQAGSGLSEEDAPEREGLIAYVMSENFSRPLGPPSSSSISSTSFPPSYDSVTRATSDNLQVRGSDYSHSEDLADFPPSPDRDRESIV

COc1ccccc1OCC(O)CN1CCN(CC(=O)Nc2c(C)cccc2C)CC1 (stereo not shown) [ranolazine]
general APD effect at low or high doses [1]: prolonged the APD at high doses | APD change [2]: did not shorten APD and induced EADs at high doses | suppression of spontaneous arrhythmia [2]: blocked arrhythmia only in the genetic LQT3 model | suppression of ATX-II induced arrhythmia [3]: blocked arrhythmia only in the genetic LQT3 model

Cc1ccccc1OCC(N)c1ccccc1 (stereo not shown) [MexA2, 1-Phenyl-2-(o-tolyloxy)ethan-1-amine]
preference of block between INaP and INaL (SCN5A L409P/R588 mutant): preferentially blocked INaP over INaL

NC(COc1ccccc1C(F)(F)F)c1ccccc1 (stereo not shown) [MexA4, 1-Phenyl-2-(2-(trifluoromethyl)phenoxy)ethan-1-amine]
proarrhythmic response (APD prolongation, EADs) (HD.CDI hiPSC-CMs): not proarrhythmic

FC(F)(F)Oc1ccc(-c2ccc3nnc(C(F)(F)F)n3c2)cc1 [GS-967]
general APD effect at low or high doses [1]: most pronounced shortening at low doses | suppression of spontaneous arrhythmia [2]: effective | suppression of ATX-II induced arrhythmia [3]: effective

COCCNC(COc1cccc(C)c1C)c1ccccc1 (stereo not shown) [MexA5, 2-(2,3-dimethylphenoxy)-N-(2-methoxyethyl)-1-phenylethan-1-amine]
general APD effect at low or high doses [1]: most pronounced shortening at low doses | suppression of spontaneous arrhythmia [2]: terminated spontaneous arrhythmias | asystole effect, change with N-ethyl methoxy substitution (HD.CDI hiPSC-CMs; high concentrations): decreased this effect

Cc1cccc(C)c1OCC(C)N (stereo not shown) [mexiletine, Mexiletine]
APD change across LQT3 hiPSC-CM models [1]: substantially prolonged the AP in all hiPSC-CMs examined | APD shortening in pharmacological LQT3 models [1]: not in all the pharmacological models | general APD effect at low or high doses [1]: prolonged the APD at high doses | APD change [2]: weakly | proarrhythmic response (APD prolongation, EADs) (HD.CDI hiPSC-CMs): proarrhythmic response

Cc1cc(C)cc(OCC(N)c2ccccc2)c1 (stereo not shown) [MexA3]
block of INaL (SCN5A L409P/R588 mutant): did not block INaL | preference of block between INaP and INaL (SCN5A L409P/R588 mutant): preferentially blocked INaP over INaL
